Counter-ions that a name gives are not always drawn.
target: T1, human αVβ6 (Homo sapiens, UniProt P06756+P18564); test: human αVβ6 HTRF binding assay; conditions: recombinant human αVβ6 integrin, FITC-conjugated fibronectin
T1 construct: purchased R & D systems 3817-AV
Protocol: All binding assays used the HTRF (homogeneous time resolved fluorescence) technology from Cisbio International, therefore all assays are described as HTRF binding assays. The assay results for the Examples are listed above together with the characterization data. The HTRF binding assays are established for the following integrins: human αVβ6, human αVβ1, human αVβ3, human αVβ5, and human αVβ8. All assays used the following assay buffer: 20 mM Tris, pH 7.4, 1 mM MgCl2, 1 mM MnCl2, 0.01% Tween 20, and 0.01% BSA. Alternatively, a SPA-based assay was used for evaluation of receptor binding.
The following describes the components and a representative procedure for the human αVβ6 HTRF binding assay: Recombinant human αVβ6 Integrin (R & D systems, 3817-AV) was biotinylated. Biotinylated human αVβ6 Integrin was added to assay vessel at a final concentration of 1.25 nM. FITC-conjugated fibronectin (Cytoskeleton, FNR02) was then added at the final concentration of 5 nM. The mixture was centrifuged at 600 rpm for three minutes using Thermo Fisher Heraeus Multifuge X3 centrifuge and then incubated at room temperature for an hour. Streptavidin Terbium (Cisbio international 610STLB) was then added at the final concentration of 0.625 nM. The resulting mixture was centrifuged at 600 rpm for three minutes using Thermo Fisher Heraeus Multifuge X3 centrifuge and then incubated at room temperature overnight in dark before reading HTRF signals. […]

T1 sequence (P06756 31-992 limits assumed): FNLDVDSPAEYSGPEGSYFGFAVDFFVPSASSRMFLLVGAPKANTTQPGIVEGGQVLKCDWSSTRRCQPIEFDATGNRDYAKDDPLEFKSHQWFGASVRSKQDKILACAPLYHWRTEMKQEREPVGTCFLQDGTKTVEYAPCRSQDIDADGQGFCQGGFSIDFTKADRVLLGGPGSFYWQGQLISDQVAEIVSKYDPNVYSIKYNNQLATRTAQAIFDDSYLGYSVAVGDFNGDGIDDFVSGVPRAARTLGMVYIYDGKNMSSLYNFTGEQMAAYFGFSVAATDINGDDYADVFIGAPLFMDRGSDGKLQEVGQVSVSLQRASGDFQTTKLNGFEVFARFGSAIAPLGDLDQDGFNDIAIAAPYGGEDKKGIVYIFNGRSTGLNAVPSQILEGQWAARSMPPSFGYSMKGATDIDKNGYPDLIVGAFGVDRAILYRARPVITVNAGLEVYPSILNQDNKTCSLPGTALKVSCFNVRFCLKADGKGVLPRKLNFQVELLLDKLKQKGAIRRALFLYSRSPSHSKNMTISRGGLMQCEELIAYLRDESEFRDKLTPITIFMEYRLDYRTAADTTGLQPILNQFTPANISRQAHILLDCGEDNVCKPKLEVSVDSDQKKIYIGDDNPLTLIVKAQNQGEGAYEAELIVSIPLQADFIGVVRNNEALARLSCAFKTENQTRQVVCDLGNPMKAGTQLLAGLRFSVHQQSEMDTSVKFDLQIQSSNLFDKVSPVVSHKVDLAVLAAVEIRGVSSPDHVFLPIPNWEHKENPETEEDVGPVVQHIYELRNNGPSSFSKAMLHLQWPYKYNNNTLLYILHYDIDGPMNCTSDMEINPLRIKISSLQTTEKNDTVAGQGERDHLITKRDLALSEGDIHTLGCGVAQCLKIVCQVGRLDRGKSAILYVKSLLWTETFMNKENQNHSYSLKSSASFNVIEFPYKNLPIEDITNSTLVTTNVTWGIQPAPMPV
T1 sequence (P18564 22-707 limits assumed): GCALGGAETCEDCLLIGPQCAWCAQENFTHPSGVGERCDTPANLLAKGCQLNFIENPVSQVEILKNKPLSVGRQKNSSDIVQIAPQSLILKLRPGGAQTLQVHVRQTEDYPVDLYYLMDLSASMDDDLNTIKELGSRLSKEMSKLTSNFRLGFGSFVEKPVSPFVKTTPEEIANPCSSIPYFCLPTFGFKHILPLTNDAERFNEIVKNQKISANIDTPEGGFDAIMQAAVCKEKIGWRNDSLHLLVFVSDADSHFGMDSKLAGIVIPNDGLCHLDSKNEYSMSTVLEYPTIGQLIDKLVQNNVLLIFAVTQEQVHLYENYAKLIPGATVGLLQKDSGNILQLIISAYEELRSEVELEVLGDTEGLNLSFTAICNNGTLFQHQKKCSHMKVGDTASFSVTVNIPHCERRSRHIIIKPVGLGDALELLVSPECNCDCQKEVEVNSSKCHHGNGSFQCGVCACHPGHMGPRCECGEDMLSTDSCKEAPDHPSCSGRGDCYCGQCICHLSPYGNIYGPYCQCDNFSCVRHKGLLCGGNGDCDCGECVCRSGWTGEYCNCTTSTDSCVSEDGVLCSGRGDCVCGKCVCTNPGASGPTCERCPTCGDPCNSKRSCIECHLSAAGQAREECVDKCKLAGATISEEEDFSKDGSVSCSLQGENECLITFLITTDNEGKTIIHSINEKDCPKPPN

Question: `Cc1cc(C)n(-c2cccc(C(CC(=O)O)n3ncc4cc(OCCc5ccc6c(n5)NCCC6)ccc43)c2)n1` (stereo not drawn) [Example 68, 3-(3-(3,5-Dimethylpyrazol-1-yl)phenyl)-3-(5-(2-(5,6,7,8-tetrahydro-1,8-naphthyridin-2-yl)ethoxy)-1H-indazol-1-yl)propanoic acid, TFA] was tested. Which IC50 did it give?
Answer: 1.5 nM

Question: How did the IC50 turn out when `COc1ccc([C@H](CC(=O)O)n2cc3ccc(CCCc4ccc5c(n4)NCCC5)cc3n2)cn1` [Example 9, (S)-3-(6-Methoxypyridin-3-yl)-3-(6-(3-(5,6,7,8-tetrahydro-1,8-naphthyridin-2-yl)propyl)-2H-indazol-2-yl)propanoic acid] was run?
Answer: 2.6 nM

Question: For `Cc1cc(C(CC(=O)O)n2ncc3cc(OCCc4ccc5c(n4)NCCC5)ccc32)cnc1OCC(C)(C)O` (stereo not drawn) [Example 90, 3-(6-(2-Hydroxy-2-methylpropoxy)-5-methylpyridin-3-yl)-3-(5-(2-(5,6,7,8-tetrahydro-1,8-naphthyridin-2-yl)ethoxy)-1H-indazol-1-yl)propanoic acid, TFA], which IC50 is on record?
Answer: 9.5 nM

Question: For `O=C(N[C@@H](Cn1cc2cc(OCc3ccc4c(n3)NCCC4)ccc2n1)C(=O)O)OCc1ccccc1` [Example 98, (S)-2-(((Benzyloxy)carbonyl)amino)-3-(5-((5,6,7,8-tetrahydro-1,8-naphthyridin-2-yl)methoxy)-2H-indazol-2-yl)propanoic acid], which IC50 is on record?
Answer: 160 nM

Question: With `O=C(O)C(CCc1ccccc1)Cn1ncc2cc(OCCc3ccc4c(n3)NCCC4)ccc21` (stereo not drawn) [Example 73, 4-Phenyl-2-((5-(2-(5,6,7,8-tetrahydro-1,8-naphthyridin-2-yl)ethoxy)-1H-indazol-1-yl)methyl)butanoic acid] as the molecule, how does the IC50 read?
Answer: 1800 nM

Question: Which IC50 does the source give for `COc1ccc([C@H](CC(=O)O)n2cc3ccc(Cc4cc5c(nc4C)NCCC5)cc3n2)cn1` [Example 8, (S)-3-(6-Methoxypyridin-3-yl)-3-(6-((2-methyl-5,6,7,8-tetrahydro-1,8-naphthyridin-3-yl)methyl)-2H-indazol-2-yl)propanoic acid] here?
Answer: 390 nM

Question: Which IC50 does the source give for `O=C(O)CC(c1ccc2cnccc2c1)n1ncc2cc(OCCc3ccc4c(n3)NCCC4)ccc21` (stereo not drawn) [Example 94, 3-(Isoquinolin-6-yl)-3-(5-(2-(5,6,7,8-tetrahydro-1,8-naphthyridin-2-yl)ethoxy)-1H-indazol-1-yl) propanoic acid, 2 TFA] here?
Answer: 13 nM

Question: Which IC50 does the source give for `O=C(O)C[C@@H](c1cnc2ccccc2c1)n1cc2ccc(CCc3ccc4c(n3)NCCC4)cc2n1` [Example 81, (S)-3-(Quinolin-3-yl)-3-(6-(2-(5,6,7,8-tetrahydro-1,8-naphthyridin-2-yl)ethyl)-2H-indazol-2-yl)propanoic acid] here?
Answer: 3.2 nM

Question: For `CC(C)(C)OC(=O)NCc1cncc(C(CC(=O)O)n2ncc3cc(OCCc4ccc5c(n4)NCCC5)ccc32)c1` (stereo not drawn) [Example 123, 3-(5-(((tert-Butoxycarbonyl)amino)methyl)pyridin-3-yl)-3-(5-(2-(5,6,7,8-tetrahydro-1,8-naphthyridin-2-yl)ethoxy)-1H-indazol-1-yl)propanoic acid], which IC50 is on record?
Answer: 5.5 nM

Question: How did the IC50 turn out when `O=C(O)CCn1ncc2cc(OCCc3ccc4c(n3)NCCC4)ccc21` [Example 51, 3-(5-(2-(5,6,7,8-Tetrahydro-1,8-naphthyridin-2-yl)ethoxy)-1H-indazol-1-yl)propanoic acid] was run?
Answer: 2500 nM

Question: How did the IC50 turn out when `COc1ccc(C(CC(=O)O)n2ncc3cc(OCCNC4=NCCN4)ccc32)cn1` (stereo not drawn) [Example 12, 3-(5-(2-((4,5-Dihydroimidazol-2-yl)amino)ethoxy)-1H-indazol-1-yl)-3-(6-methoxypyridin-3-yl)propanoic acid] was run?
Answer: 2000 nM

Question: Which IC50 does the source give for `O=C(O)CC(C1CC1)n1ncc2cc(OCCc3ccc4c(n3)NCCC4)ccc21` (stereo not drawn) [Example 45, 3-Cyclopropyl-3-(5-(2-(5,6,7,8-tetrahydro-1,8-naphthyridin-2-yl)ethoxy)-1H-indazol-1-yl)propanoic acid, TFA] here?
Answer: 2300 nM

Question: How did the IC50 turn out when `CN(C)C(=O)c1cccc(C(CC(=O)O)n2ncc3cc(OCCc4ccc5c(n4)NCCC5)ccc32)c1` (stereo not drawn) [Example 35, 3-(3-(Dimethylcarbamoyl)phenyl)-3-(5-(2-(5,6,7,8-tetrahydro-1,8-naphthyridin-2-yl)ethoxy)-1H-indazol-1-yl)propanoic acid] was run?
Answer: 17 nM

Question: `O=C(O)CC(c1ccc(F)cn1)n1ncc2cc(OCCc3ccc4c(n3)NCCC4)ccc21` (stereo not drawn) [Example 53, 3-(5-Fluoropyridin-2-yl)-3-(5-(2-(5,6,7,8-tetrahydro-1,8-naphthyridin-2-yl)ethoxy)-1H-indazol-1-yl)propanoic acid, TFA] was tested. Which IC50 did it give?
Answer: 150 nM

Question: With `Cc1ncc([C@@H](CC(=O)O)n2ncc3cc(OCCc4ccc5c(n4)N[C@@H](C)CC5)ccc32)cn1` (single isomer, unassigned) [Example 177] as the molecule, how does the IC50 read?
Answer: 5000 nM

Question: How did the IC50 turn out when `O=C(O)CC(c1ccc2c(n1)NCCC2)n1ncc2cc(OCCc3ccc4c(n3)NCCC4)ccc21` (stereo not drawn) [Example 116, 3-(5,6,7,8-Tetrahydro-1,8-naphthyridin-2-yl)-3-(5-(2-(5,6,7,8-tetrahydro-1,8-naphthyridin-2-yl)ethoxy)-1H-indazol-1-yl)propanoic acid, 2 TFA] was run?
Answer: 5.9 nM

Question: How did the IC50 turn out when `CC(=O)NCc1cncc(C(CC(=O)O)n2ncc3cc(OCCc4ccc5c(n4)NCCC5)ccc32)c1` (stereo not drawn) [Example 171] was run?
Answer: 46 nM

Question: For `O=C(O)C[C@@H](c1cnc2ccccc2c1)n1cc2ccc(CCCC3CCc4cccnc4N3)cc2n1` (stereo partly drawn) [Example 88, (3S)-3-(Quinolin-3-yl)-3-(6-(3-(1,2,3,4-tetrahydro-1,8-naphthyridin-2-yl)propyl)-2H-indazol-2-yl)propanoic acid], which IC50 is on record?
Answer: 20 nM

Question: Which IC50 does the source give for `O=C(O)CC(c1cncc(C(=O)N2CCC2)c1)n1ncc2cc(OCCc3ccc4c(n3)NCCC4)ccc21` (stereo not drawn) [Example 157, 3-(5-(azetidine-1-carbonyl)pyridin-3-yl)-3-(5-(2-(5,6,7,8-tetrahydro-1,8-naphthyridin-2-yl)ethoxy)-1H-indazol-1-yl)propanoic acid] here?
Answer: 32 nM

Question: How did the IC50 turn out when `O=C(O)CC(c1cncc(-c2ccn[nH]2)c1)n1ncc2cc(OCCc3ccc4c(n3)NCCC4)ccc21` (stereo not drawn) [Example 141, 3-(5-(1H-pyrazol-5-yl)pyridin-3-yl)-3-(5-(2-(5,6,7,8-tetrahydro-1,8-naphthyridin-2-yl)ethoxy)-1H-indazol-1-yl)propanoic acid] was run?
Answer: 8.2 nM

Question: `O=C(O)CC(c1cc(Cl)cc(Cl)c1)n1ncc2cc(CCc3ccc4c(n3)NCCC4)ccc21` (stereo not drawn) [Example 28, 3-(3,5-Dichlorophenyl)-3-(5-(2-(5,6,7,8-tetrahydro-1,8-naphthyridin-2-yl)ethyl)-1H-indazol-1-yl)propanoic acid] was tested. Which IC50 did it give?
Answer: 210 nM

Question: `O=C(O)C[C@@H](c1cncc(C2OCCO2)c1)n1ncc2cc(OCCc3ccc4c(n3)NCCC4)ccc21` [Example 139, (S)-3-(5-(1,3-dioxolan-2-yl)pyridin-3-yl)-3-(5-(2-(5,6,7,8-tetrahydro-1,8-naphthyridin-2-yl)ethoxy)-1H-indazol-1-yl)propanoic acid] was tested. Which IC50 did it give?
Answer: 4.7 nM

Question: With `O=C(O)CC(c1cnc2ccccc2n1)n1ncc2cc(CCCc3ccc4c(n3)NCCC4)ccc21` (stereo not drawn) [Example 22, 3-(Quinoxalin-2-yl)-3-(5-(3-(5,6,7,8-tetrahydro-1,8-naphthyridin-2-yl)propyl)-1H-indazol-1-yl)propanoic acid] as the molecule, how does the IC50 read?
Answer: 190 nM

Question: How did the IC50 turn out when `O=C(N[C@@H](Cn1cc2cc(OCCc3ccc4c(n3)NCCC4)ccc2n1)C(=O)O)OCc1ccccc1` [Example 4, (S)-2-(((Benzyloxy)carbonyl)amino)-3-(5-(2-(5,6,7,8-tetrahydro-1,8-naphthyridin-2-yl)ethoxy)-2H-indazol-2-yl)propanoic acid] was run?
Answer: 21 nM

Question: Which IC50 does the source give for `O=C(O)CC(c1cc(Cl)cc(Cl)c1)n1ncc2cc(CCCc3ccc4c(n3)NCCC4)ccc21` (stereo not drawn) [Example 21, 3-(3,5-Dichlorophenyl)-3-(5-(3-(5,6,7,8-tetrahydro-1,8-naphthyridin-2-yl)propyl)-1H-indazol-1-yl)propanoic acid] here?
Answer: 44 nM

Question: For `O=C(O)CC(c1ccc2nncn2c1)n1ncc2cc(OCCc3ccc4c(n3)NCCC4)ccc21` (stereo not drawn) [Example 115, 3-([1,2,4]Triazolo[4,3-a]pyridin-6-yl)-3-(5-(2-(5,6,7,8-tetrahydro-1,8-naphthyridin-2-yl)ethoxy)-1H-indazol-1-yl)propanoic acid], which IC50 is on record?
Answer: 60 nM

Question: For `CC(C)(O)c1cncc(C(CC(=O)O)n2ncc3cc(OCCc4ccc5c(n4)NCCC5)ccc32)c1` (stereo not drawn) [Example 144, 3-(5-(2-hydroxypropan-2-yl)pyridin-3-yl)-3-(5-(2-(5,6,7,8-tetrahydro-1,8-naphthyridin-2-yl)ethoxy)-1H-indazol-1-yl)propanoic acid], which IC50 is on record?
Answer: 5 nM

Question: `COc1cncc(C(CC(=O)O)n2ncc3cc(OCCc4ccc5c(n4)NCCC5)ccc32)n1` (stereo not drawn) [Example 149, 3-(6-methoxypyrazin-2-yl)-3-(5-(2-(5,6,7,8-tetrahydro-1,8-naphthyridin-2-yl)ethoxy)-1H-indazol-1-yl)propanoic acid] was tested. Which IC50 did it give?
Answer: 2300 nM

Question: With `O=C(O)CC(c1ccccc1)n1ncc2cc(OCCCc3ccc4c(n3)NCCC4)ccc21` (stereo not drawn) [Example 5, 3-Phenyl-3-(5-(3-(5,6,7,8-tetrahydro-1,8-naphthyridin-2-yl)propoxy)-1H-indazol-1-yl)propanoic acid] as the molecule, how does the IC50 read?
Answer: 440 nM

Question: How did the IC50 turn out when `O=C(O)CC(c1cccc(-n2cccn2)n1)n1ncc2cc(OCCc3ccc4c(n3)NCCC4)ccc21` (stereo not drawn) [Example 134, 3-(6-(1H-Pyrazol-1-yl)pyridin-2-yl)-3-(5-(2-(5,6,7,8-tetrahydro-1,8-naphthyridin-2-yl)ethoxy)-1H-indazol-1-yl)propanoic acid] was run?
Answer: 17 nM
